From ChEMBL document CHEMBL4699668, “Discovery and Structure-Activity Relationships of Novel Template, Truncated 1'-Homologated Adenosine Derivatives as Pure Dual PPARγ/δ Modulators” (J Med Chem, 2020) come the findings set out here.

Experiment [1] has as its target T1, Peroxisome proliferator-activated receptor delta (Homo sapiens, UniProt Q03181).
T1 sequence (Q03181 whole entry): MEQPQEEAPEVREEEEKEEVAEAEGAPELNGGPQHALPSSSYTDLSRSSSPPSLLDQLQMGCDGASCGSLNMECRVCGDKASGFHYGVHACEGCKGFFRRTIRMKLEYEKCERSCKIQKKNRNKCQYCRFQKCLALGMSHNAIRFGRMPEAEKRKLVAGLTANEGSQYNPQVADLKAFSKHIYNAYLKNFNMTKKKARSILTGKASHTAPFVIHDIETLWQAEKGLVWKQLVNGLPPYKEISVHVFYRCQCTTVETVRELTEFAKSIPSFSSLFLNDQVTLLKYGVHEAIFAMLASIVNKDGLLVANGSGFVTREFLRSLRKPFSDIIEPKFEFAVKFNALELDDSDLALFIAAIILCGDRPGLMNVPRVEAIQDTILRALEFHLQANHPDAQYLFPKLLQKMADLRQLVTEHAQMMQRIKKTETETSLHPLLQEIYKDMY
Description: Binding affinity to PPAR-delta (unknown origin) by TR-FRET assay

Experiment [2] deals with T2, Peroxisome proliferator-activated receptor gamma (Homo sapiens, UniProt P37231).
T2 sequence (P37231 whole entry): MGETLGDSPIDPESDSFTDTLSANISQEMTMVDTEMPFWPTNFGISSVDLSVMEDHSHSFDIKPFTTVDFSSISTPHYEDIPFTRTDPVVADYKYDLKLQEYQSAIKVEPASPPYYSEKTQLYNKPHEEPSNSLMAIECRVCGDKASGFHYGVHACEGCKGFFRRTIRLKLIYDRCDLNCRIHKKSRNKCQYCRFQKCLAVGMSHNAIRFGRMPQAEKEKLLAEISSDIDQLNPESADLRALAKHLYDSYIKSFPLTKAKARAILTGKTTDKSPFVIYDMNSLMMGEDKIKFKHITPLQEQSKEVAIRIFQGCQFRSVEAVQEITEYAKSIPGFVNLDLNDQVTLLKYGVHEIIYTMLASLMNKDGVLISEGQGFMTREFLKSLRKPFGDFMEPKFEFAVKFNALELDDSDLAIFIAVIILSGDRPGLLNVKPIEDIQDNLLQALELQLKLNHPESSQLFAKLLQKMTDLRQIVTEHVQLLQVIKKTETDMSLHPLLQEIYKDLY
Description: Binding affinity to PPAR-gamma (unknown origin) by TR-FRET assay

Take `O[C@@H]1[C@H](O)CS[C@H]1Cn1cnc2c(NCc3cccc(F)c3)nc(Cl)nc21`: the Ki in experiment [1] amounted to 1.91 µM; in experiment [2], 3.89 µM.
The matching figures for `O[C@@H]1[C@H](O)CO[C@H]1Cn1cnc2c(NCc3cccc(Br)c3)nc(Cl)nc21`: 1.43 µM and 9.55 µM.
The matching figures for `O[C@@H]1[C@H](O)CS[C@H]1Cn1cnc2c(NCc3cccc(Br)c3)nc(Cl)nc21`: 0.592 µM and 4.07 µM.
Turning to `CC#Cc1nc(NCc2cccc(Br)c2)c2ncn(C[C@@H]3SC[C@@H](O)[C@H]3O)c2n1`, in experiment [2], the affinity, expressed as Ki, was 7.04 µM.
As for `O[C@@H]1[C@H](O)CO[C@H]1Cn1cnc2c(NCc3cccc(Cl)c3)nc(Cl)nc21`, the inhibition constant (Ki) in experiment [1] amounted to 0.504 µM; in experiment [2] it was 7.66 µM.
For the compound `O[C@@H]1[C@H](O)CS[C@H]1n1cnc2c(NCc3cccc(I)c3)nc(Cl)nc21`, the Ki in experiment [1] amounted to 0.0106 µM.
In experiment [2], `CC#Cc1nc(NCc2cccc(I)c2)c2ncn(C[C@@H]3SC[C@@H](O)[C@H]3O)c2n1` showed a Ki of 7.3 µM.
Take `CC#Cc1nc(NCc2cccc(F)c2)c2ncn(C[C@@H]3SC[C@@H](O)[C@H]3O)c2n1`: the Ki in experiment [2] turned out to be 7.66 µM.
